Test results taken from US4628095A, “Substituted N-benzyl-4-(benzhydryl) piperidines” (G. D. Searle & Co., priority 1985, dated 1986).

Columns and labels:
[1] = test system: vascular smooth muscle (isolated thoracic aorta segments); assay: Calcium antagonism in vascular smooth muscle, isolated thoracic aorta segments from male spontaneously hypertensive rat (pA2); assay type: cell-based; settings: for pA2 (Ca++ antagonism): test compound 1×10^-6 M, one hour incubation, K+ (100 mM) depolarized, considered active if pA2 is 6.0 or greater; for active in the foregoing test (vascular calcium antagonism): reference drugs
Experimental: Isolated thoracic aorta segments from the male spontaneously hypertensive rat were utilized in this test procedure.
The excised aorta segment was mounted in a tissue bath containing modified Krebs solution. After depolarization of the tissue with potassium (100 mM), calcium, in cumulative concentrations of 1×10^-3 M, 3.2×10^-3 M, and 1×10^-2 M was injected into the bath to produce vascular smooth muscle contraction. The developed tension (in grams) is measured and control dose-response values obtained. After one hour of incubation with a test compound at 1×10^-6 M concentration, the same doses of calcium ions were repeated. The log dose-response curves of the control and after treatment were analyzed by linear regression. The pA2 value was calculated as a measure of calcium antagonism of the test compound. See Van Rossum, J. M., Arch. Int. Pharmacodyn, 143, 299-330, 1963.
Calcium ions play an essential role in induction and maintenance of vascular smooth muscle contractility. In potassium depolarized vascular smooth muscle, calcium antagonists may block the entry of calcium ions into the cell or act by other mechanisms to inhibit the contractions induced by calcium ions. The inhibition of calcium ion-induced contraction of vascular smooth muscle is used to test compounds for vascular calcium antagonism. Cardiovascular diseases such as arrythmias, angina-pectoris, hypertension, and peripheral vascular disease may be causally related to abnormalities in cellular handling of calcium ions.

[2] = test system: spontaneously hypertensive rat (SHR); assay: Anti-hypertensive activity, unanesthetized spontaneously hypertensive rat (SHR) assay, mean arterial blood pressure; assay type: in vivo
Experimental: Male, unanesthetized spontaneously hypertensive rats, 11 to 16 weeks old were used in this test procedure. The compounds to be tested are administered intragastrically at a dose of 50 mg/kg or intraarterially/intraveneously at a dose of 10 mg/kg. or such other doses determined to be suitable for a specific test compound.
Initial mean arterial blood pressure was measured directly via a previously implanted arterial catheter immediately before administration of the test compound. Blood pressure readings were made at 1, 2, 3, and 4 hours following administration of the test compound. […] Statistical comparisons were made using the paired Student's T test with two sided probability calculations.

[3] = reference drugs, dose not given

CN(C)c1ccc(CN2CCC(C(c3ccc(F)cc3)c3ccc(F)cc3)CC2)c(C(=O)NC(C)(C)C)c1 [Example 3, 2-[[4-[bis(4-fluorophenyl)methyl]-1-piperidinyl]methyl]-5-(dimethylamino)-N-(1,1-dimethylethyl)benzamide]
pA2 (Ca++ antagonism) [1]: inactive | SHR -mm Hg (dose), blood pressure change ([2]; 50 mpk-oral): -54 mm Hg

COC(=O)c1cc(N(C)C)ccc1CN1CCC(C(c2ccccc2)c2ccccc2)CC1 [Example 11, methyl 5-(dimethylamino)-2-[[4-(diphenylmethyl)-1-piperidinyl]methyl]benzoate]
pA2 (Ca++ antagonism) ([1]; 60 min, 1 µM): 7.65 | SHR -mm Hg (dose), blood pressure change ([2]; 50 mpk-oral): -34 mm Hg

NNc1nncc2ccccc12 [Apresoline, reference compound]
active in the foregoing hypertensive rat assay ([2]; rat, in vivo): active

CN(C)c1ccc(CN2CCC(C(c3ccccc3)c3ccccc3)CC2)c(C(=O)NC(C)(C)C)c1 [Example 6, 5-(dimethylamino)-N-(1,1-dimethylethyl)-2-[[4-(diphenylmethyl)-1-piperidinyl]methyl]benzamide]
pA2 (Ca++ antagonism) ([1]; 60 min, 1 µM): 7.20 | SHR activity (in words) ([2]; dose not given, active if mean post treatment blood pressure differs from control, p <= 0.05): inactive

COc1ccc([C@@H]2Sc3ccccc3N(CCN(C)C)C(=O)[C@@H]2OC(C)=O)cc1 [diltiazem, reference compound]
active in the foregoing test (vascular calcium antagonism) [1]: active

CN(C)c1ccc(C[N+]2([O-])CCC(C(c3ccccc3)c3ccccc3)CC2)cc1 (centres unmarked) [Example 9]
pA2 (Ca++ antagonism) [1]: inactive | SHR -mm Hg (dose), blood pressure change ([2]; 50 mpk-oral): -48 mm Hg

C[C@H](CS)C(=O)N1CCC[C@H]1C(=O)O [Captopril, reference compound]
active in the foregoing hypertensive rat assay [2, 3]: active

CNC(=O)c1cc(N(C)C)ccc1CN1CCC(C(c2ccccc2)c2ccccc2)CC1 [Example 5, 5-(dimethylamino)-2-[[4-(diphenylmethyl)-1-piperidinyl]methyl]-N-methylbenzamide]
pA2 (Ca++ antagonism) ([1]; 60 min, 1 µM): 7.25 | SHR -mm Hg (dose), blood pressure change ([2]; 10 mpk-i.v.): -56 mm Hg

COc1ccc(CCN(C)CCCC(C#N)(c2ccc(OC)c(OC)c2)C(C)C)cc1OC (centres unmarked) [Verapamil, reference compound]
active in the foregoing test (vascular calcium antagonism) [1]: active

COC(=O)C1=C(C)NC(C)=C(C(=O)OC)C1c1ccccc1[N+](=O)[O-] [nifedipine, reference compound]
active in the foregoing test (vascular calcium antagonism) [1]: active

C[C@](N)(Cc1ccc(O)c(O)c1)C(=O)O [Aldomet, reference compound]
active in the foregoing hypertensive rat assay [2, 3]: active

Clc1cccc(Cl)c1N=C1NCCN1 [Clonidine, reference compound]
active in the foregoing hypertensive rat assay ([2]; rat, in vivo): active

COC(=O)c1cc(OC)ccc1CN1CCC(C(c2ccccc2)c2ccccc2)CC1 [Example 8, methyl 2-[[4-(diphenylmethyl)-1-piperidinyl]methyl]-5-methoxybenzoate]
SHR -mm Hg (dose), blood pressure change ([2]; 3-10 mpk-i.v.): -40 mm Hg

COC(=O)c1cc(N(C)C)ccc1CN1CCC(C(c2ccc(F)cc2)c2ccc(F)cc2)CC1 [Example 4, methyl 2-[[4-[bis(4-fluorophenyl)methyl]-1-piperidinyl]methyl]-5-(dimethylamino)benzoate]
pA2 (Ca++ antagonism) ([1]; 60 min, 1 µM): 7.78 | SHR -mm Hg (dose), blood pressure change ([2]; 50 mpk-oral): -67 mm Hg
